According to patent US8835377B2, “Oral delivery of peptide pharmaceutical compositions” (UGP Therapeutics, Inc., priority 2004, dated 2014):

Experiment: Pharmacokinetics after oral capsules (sCT plus Dmt-DALDA with citric acid and lauroyl carnitine), non-enteric coated or enteric coated, in fasted beagle dogs (plasma; ELISA for sCT, HPLC-MS for Dmt-DALDA)
Assay type: in vivo
Details: for AUC / Cmax: normalized to a 1 mg dose; for Tmax / Cmax: beagle, dog, plasma, oral; for plasma peptide concentration normalized to a 1 mg dose: enteric coated capsule
Method: A second series of tests was carried out, as noted above, using beagle dogs. […] In the experiments represented in FIGS. 2A and 2B, size 00 […] capsules were each filled with 758 mg of a powdered blend consisting of citric acid (643 mg), lauroyl carnitine (66 mg), talc (33 mg), salmon calcitonin (sCT) (13 mg) and Dmt-DALDA (2.4 mg). Half of the capsules were coated with an enteric coating solution of L30D-55, while the remaining 50% of the capsules were not coated. Four fasted dogs were each given 1 uncoated capsule, and 2 weeks later they were each given an enteric coated capsule. After administration of each capsule, samples of blood were taken at 15 minute intervals from an indwelling catheter for up to 4 hours. The blood samples were centrifuged and the resulting plasma supernatants were stored frozen at −20° C. The plasma samples were subsequently analyzed for sCT by a direct ELISA, and for Dmt-DALDA by HPLC-mass spectrometry performed as set forth in Wan, H. and Desiderio, D., Quantitation of [DMT^1] DALDA in ovine plasma by on-line liquid chromatography/quadrapole time-of-flight mass spectrometry, Rapid Communications in Mass Spectrometry, 2003; 17, 538-546, the contents of which are incorporated herein by reference.
The results summarized in FIGS. 2A and 2B as plasma peptide concentration normalized to a 1 mg dose as a function of time relative to the average Tmax, (i.e., the time at which the maximum amount of peptide was detected) indicate that both peptides, i.e., sCT and Dmt-DALDA, were detected in dogs given uncoated or enteric coated capsules. […] Table DI (below) sets forth the values upon which the curves in FIGS. 2A and 2B are based. The results are summarized in the tables as plasma peptide concentration normalized to a 1 mg dose as a function of time. Table III, moreover, provides the standard deviations for the data obtained regarding each of the test dogs, which standard deviations are also indicated in FIGS. 2A and 2B.
Table IV (below) summarizes the pharmacokinetic parameters in dogs of orally administered sCT and Dmt-DALDA when administered in non-enteric coated versus enteric coated capsules. Peptide was not detected from 1 dog in each group due to (a) Dog 3 vomiting the uncoated capsule and (b) delayed gastric emptying in Dog 2 provided with an enteric coated capsule. Cmax and AUC are as defined with regard to Table H above.

[1] = Non-Enteric Capsule, Avg (n = 3)

## CC(C)C[C@H](NC(=O)[C@H](CCCCN)NC(=O)CNC(=O)[C@H](CC(C)C)NC(=O)[C@@H](NC(=O)[C@@H]1CSSC[C@H](N)C(=O)N[C@@H](CO)C(=O)N[C@@H](CC(N)=O)C(=O)N[C@@H](CC(C)C)C(=O)N[C@@H](CO)C(=O)N[C@@H]([C@@H](C)O)C(=O)N1)C(C)C)C(=O)N[C@@H](CO)C(=O)N[C@@H](CCC(N)=O)C(=O)N[C@@H](CCC(=O)O)C(=O)N[C@@H](CC(C)C)C(=O)N[C@@H](Cc1c[nH]cn1)C(=O)N[C@@H](CCCCN)C(=O)N[C@@H](CC(C)C)C(=O)N[C@@H](CCC(N)=O)C(=O)N[C@H](C(=O)N[C@@H](Cc1ccc(O)cc1)C(=O)N1CCC[C@H]1C(=O)N[C@@H](CCCNC(=N)N)C(=O)N[C@H](C(=O)N[C@@H](CC(N)=O)C(=O)N[C@H](C(=O)NCC(=O)N[C@@H](CO)C(=O)NCC(=O)N[C@H](C(=O)N1CCC[C@H]1C(N)=O)[C@@H](C)O)[C@@H](C)O)[C@@H](C)O)[C@@H](C)O [sCT, salmon calcitonin]
Enteric Capsule, Avg (n = 3)
  AUC: 788317 pg/mL-min
  Tmax: 105 min
  Cmax: 17.2 ng/mL
Enteric Capsule, Dog 1
  AUC: 1178504 pg/mL-min
  Cmax: 25.1 ng/mL
Enteric Capsule, Dog 2 (delayed gastric emptying)
  AUC: 0 pg/mL-min
Enteric Capsule, Dog 3
  AUC: 522432 pg/mL-min
  Tmax: 135 min
  Cmax: 13.2 ng/mL
Enteric Capsule, Dog 4
  AUC: 664016 pg/mL-min
  Tmax: 120 min
  Cmax: 13.1 ng/mL
[1]
  AUC: 69539 pg/mL-min
  Tmax: 30 min
  Cmax: 2.26 ng/mL
Non-Enteric Capsule, Dog 1
  AUC: 79620 pg/mL-min
  Tmax: 30 min
  Cmax: 2.65 ng/mL
Non-Enteric Capsule, Dog 2
  AUC: 103772 pg/mL-min
  Tmax: 30 min
  Cmax: 3.15 ng/mL
Non-Enteric Capsule, Dog 3 (vomited capsule)
  AUC: 0 pg/mL-min
Non-Enteric Capsule, Dog 4
  AUC: 25227 pg/mL-min
  Tmax: 30 min
  Cmax: 0.971 ng/mL
dogs
  Cmax and AUC, enteric coated capsules versus non enteric-coated capsules: significantly enhanced
  amount of peptide detected in plasma, enteric coated capsules vs non-coated capsules: nearly eight times as much
Dogs given coated capsules
  time at which the maximum concentration was seen: 105 min
Dogs given uncoated capsules
  time at which the maximum concentration was seen: 30 min
Dog 1, 0 min
  plasma peptide concentration normalized to a 1 mg dose: 0 pg/mL
Dog 1, 15 min
  plasma peptide concentration normalized to a 1 mg dose: 0 pg/mL
Dog 1, 30 min
  plasma peptide concentration normalized to a 1 mg dose: 407 pg/mL
Dog 1, 45 min
  plasma peptide concentration normalized to a 1 mg dose: 22650 pg/mL
Dog 1, 60 min
  plasma peptide concentration normalized to a 1 mg dose: 25136 pg/mL
Dog 1, 75 min
  plasma peptide concentration normalized to a 1 mg dose: 6444 pg/mL
Dog 1, 90 min
  plasma peptide concentration normalized to a 1 mg dose: 8167 pg/mL
Dog 1, 105 min
  plasma peptide concentration normalized to a 1 mg dose: 4344 pg/mL
Dog 1, 120 min
  plasma peptide concentration normalized to a 1 mg dose: 3193 pg/mL
Dog 1, 135 min
  plasma peptide concentration normalized to a 1 mg dose: 2710 pg/mL
Dog 1, 150 min
  plasma peptide concentration normalized to a 1 mg dose: 1706 pg/mL
Dog 1, 165 min
  plasma peptide concentration normalized to a 1 mg dose: 1283 pg/mL
Dog 1, 180 min
  plasma peptide concentration normalized to a 1 mg dose: 1301 pg/mL
Dog 1, 195 min
  plasma peptide concentration normalized to a 1 mg dose: 459 pg/mL
Dog 1, 210 min
  plasma peptide concentration normalized to a 1 mg dose: 347 pg/mL
Dog 2 (delayed gastric emptying), 0 min
  plasma peptide concentration normalized to a 1 mg dose: 0 pg/mL
Dog 2 (delayed gastric emptying), 15 min
  plasma peptide concentration normalized to a 1 mg dose: 0 pg/mL
Dog 2 (delayed gastric emptying), 30 min
  plasma peptide concentration normalized to a 1 mg dose: 0 pg/mL
Dog 2 (delayed gastric emptying), 45 min
  plasma peptide concentration normalized to a 1 mg dose: 0 pg/mL
Dog 2 (delayed gastric emptying), 60 min
  plasma peptide concentration normalized to a 1 mg dose: 0 pg/mL
Dog 2 (delayed gastric emptying), 75 min
  plasma peptide concentration normalized to a 1 mg dose: 0 pg/mL
Dog 2 (delayed gastric emptying), 90 min
  plasma peptide concentration normalized to a 1 mg dose: 0 pg/mL
Dog 2 (delayed gastric emptying), 105 min
  plasma peptide concentration normalized to a 1 mg dose: 0 pg/mL
Dog 2 (delayed gastric emptying), 120 min
  plasma peptide concentration normalized to a 1 mg dose: 0 pg/mL
Dog 2 (delayed gastric emptying), 135 min
  plasma peptide concentration normalized to a 1 mg dose: 0 pg/mL
Dog 2 (delayed gastric emptying), 150 min
  plasma peptide concentration normalized to a 1 mg dose: 0 pg/mL
Dog 2 (delayed gastric emptying), 165 min
  plasma peptide concentration normalized to a 1 mg dose: 0 pg/mL
Dog 2 (delayed gastric emptying), 180 min
  plasma peptide concentration normalized to a 1 mg dose: 0 pg/mL
Dog 2 (delayed gastric emptying), 195 min
  plasma peptide concentration normalized to a 1 mg dose: 0 pg/mL
Dog 2 (delayed gastric emptying), 210 min
  plasma peptide concentration normalized to a 1 mg dose: 0 pg/mL
Dog 3, 0 min
  plasma peptide concentration normalized to a 1 mg dose: 0 pg/mL
Dog 3, 15 min
  plasma peptide concentration normalized to a 1 mg dose: 0 pg/mL
Dog 3, 30 min
  plasma peptide concentration normalized to a 1 mg dose: 0 pg/mL
Dog 3, 45 min
  plasma peptide concentration normalized to a 1 mg dose: 0 pg/mL
Dog 3, 60 min
  plasma peptide concentration normalized to a 1 mg dose: 0 pg/mL
